Reference: the OPERA property sets (Mansouri et al. 2018)

Compound `O=C(Nc1ccc2nn(C3CCCC3)nc2c1)c1ccc([N+](=O)[O-])cc1` has a logP of 3.75.
Work on `CS(=O)(=O)Nc1ccc2nn(C3CCCC3)nc2c1` yielded a logP of 2.44.
With `CCOC(=O)Nc1ccc2nn(C3CCCC3)nc2c1` the logP was 3.43.
`O=C(Nc1ccc2nn(C3CCCC3)nc2c1)C(Cl)Cl` showed a logP of 3.4.
For `COc1cc(C(=O)Nc2ccc3nn(C4CCCC4)nc3c2)cc(OC)c1OC`, the logP was 3.87.
`Nc1ccc(S(=O)(=O)Nc2ccc3nn(C4CCCC4)nc3c2)cc1` showed a logP of 2.48.
With `O=C(Nc1ccc2nn(C3CCCC3)nc2c1)C(Cl)(Cl)Cl` the logP was 4.12.
For `O=C(CCl)Nc1ccc2nn(C3CCCC3)nc2c1`, the logP was 2.78.
In the case of `CC(C)(C)C(=O)Nc1ccc2nn(C3CCCC3)nc2c1`, the logP is reported as 3.4.
Work on `O=C(Nc1ccc2nn(C3CCCC3)nc2c1)c1ccc(Cl)c(Cl)c1` yielded a logP of 5.32.
Compound `CC(=O)Nc1ccc2nn(C3CCCC3)nc2c1` has a logP of 2.45.
Work on `O=C(Nc1ccc2nn(C3CCCC3)nc2c1)c1ccccc1` yielded a logP of 3.85.
`O=C(Nc1ccc2nn(C3CCCC3)nc2c1)c1ccc(C(F)(F)F)cc1` gave a logP of 4.95.
Compound `O=[N+]([O-])c1ccc(S(=O)(=O)Nc2ccc3nn(C4CCCC4)nc3c2)cc1` has a logP of 3.82.
In the case of `O=C(Nc1ccc2nn(C3CCCC3)nc2c1)c1ccc(Cl)cc1`, the logP is reported as 4.11.
Compound `CC(C)COC(=O)Nc1ccc2nn(C3CCCC3)nc2c1` has a logP of 4.28.
In the case of `Cc1ccc(S(=O)(=O)Nc2ccc3nn(C4CCCC4)nc3c2)cc1`, the logP is reported as 3.91.
